# “And” between values parts separate entries of the source, which are not always exact repeats. Identical values can stand only once. “Also recorded” adds a separate entry of the source. Like-named read-outs stand apart in the source and are kept apart here. Ends that are not written are not given here.
# Key:
# [1] = molecular target: T1, rat TRPV1 (Rattus norvegicus, UniProt O35433); experiment: capsaicin-induced 45Ca2+-uptake in TRPV1-NIH3T3 cells; format: cell-based; details: for antagonist activity on capsaicin-induced Ca2+-uptake (in words) / IC50: 2 µM capsaicin; for IC50: 10 min, 2×10^−5 M extracellular Ca2+, room temperature; for effect on Ca2+-uptake at low concentrations in the presence of capsaicin: 2 mM capsaicin (so in the source); for kinetics of Ca2+-transport inhibition: increasing concentrations of capsaicin
# T1 construct: expressed in transfected cells
# Method: Assays were carried out in 2×10^−5 M extracellular Ca^2+ in 96 well plate formats at room temperature (22°C) for 10 min with robotic liquid handling. […] We hypothesized that calmodulin antagonists and some registered drugs may exert their blocking effect with another mechanisms on TRPV1 and not necessarily on their conventional target.
# TRPV1-NIH3T3 mouse fibroblast line, ectopically expressing the rat TRPV1 was established previously.
# (§1) Vanilloid agonist inducible calcium transport was assayed in adherent cell lines ectopically expressing the C-terminally ε-tagged rat TRPV1 (3×10^4 cells/well) and primary cultures prepared from embryonic DRG, seeded in poly-D lysine/collagen coated 96 well plates. […] The previously established cell lines and standardized DRG cultures were extensively characterized for functional cell-based TRPV1 studies [1]–[4]. Immediately before the transport assay, cells were adapted to room temperature (20°C) for 5 min in HCM. ^45Ca^2+-uptake was performed for 10 min at 20°C in HCM using 0.1 µCi ^45Ca^2+ as radioactive tracer in a 100 µl final volume. To stop ^45Ca^2+-uptake, cells were rapidly changed back into 0.2 ml HCM, washed 4 additional times with 0.2 ml HCM, and then lysed in 80 µl/well RIPA buffer (50 mM Tris-HCl, pH 7.5, 150 mM NaCl, 1% Triton X-100, 0.5% deoxycholate, 0.1% SDS, 5 mM EDTA) for 30 min [1]–[4]. Aliquots of the solubilized cell extracts were mixed with 120 µl Microscint-40 and counted in a 96 well plate liquid scintillation counter (TopCount-NXT, Packard).
# [2] = molecular target: TRPV1 (Rattus norvegicus, UniProt O35433); experiment: capsaicin-induced 45Ca2+-uptake in primary rat embryonic DRG cultures; format: cell-based; set-up: sensory neurons, expressing TRPV1 endogenously; endogenous in cells; host or cells: primary cultures of embryonic rat dorsal root ganglia (E14, E16); details: rat embryonic DRG cultures
# Method: Primary cultures were prepared from embryonic (E14) rat DRGs. Along with calmidazolium other polycyclic compounds were included in the vanilloid-induced ^45Ca^2+-transport assays.
# Primary DRG cultures were prepared from E16 embryonic rats as described previously then plated in 15 cm Petri dishes for 4 h to remove the most adherent fibroblasts. For Ca^2+-uptake studies primary afferents neurons cultured in 96 well plates (3×10^3 cells/well), coated with poly-D lysine/collagen, which yielded both axons and dendrites bearing neurons due to neuronal growth factor supplementation in the culture medium [1]–[4]. The dendrites are large processes branching from the cell body that taper in diameter further from the cell body. The axons are a constant diameter and project over long distances from the cell body. Before the ion transport experiment, culture medium was removed and cells were washed three times. ^45Ca-uptake assays were carried out in “nominally zero Ca^2+” (i.e. 2×10^−5 M extracellular Ca^2+ ([Ca^2+]o) in 25 mM Tris-HCl buffered Hanks' balanced salt solution (pH 7.5), supplemented with 10 µM CaCl2 and 0.8 mM MgCl2medium (HCM) [1]–[4].
# as §1
# [3] = tested on: formalin-induced pain; set-up: method as in PMID 8883861; details: rat, intrathecal; cited from earlier work
# [4] = tested on: heat-induced tail-flick; set-up: method as in PMID 8883861; details: cited from earlier work
# [5] = tested on: intermediate Ca2+-activated K+ channels (IKCa); details: human erythrocytes; cited from earlier work
# [6] = molecular target: rat TRPV1 (vanilloid inducible Ca2+-channel/inflammatory pain receptor 1), C-terminally ε-tagged, in TRPV1-NIH3T3 cells (rat) (UniProt O35433)
# [7] = molecular target: rat TRPV1 (vanilloid inducible Ca2+-channel/inflammatory pain receptor 1), C-terminally ε-tagged, in TRPV1-NIH3T3 cells (rat) (UniProt O35433); remark: listed apart in the source
# [8] = read-out: IC50, inhibition of capsaicin-induced 45Ca2+-uptake
# Sequence of TRPV1 (O35433 whole entry): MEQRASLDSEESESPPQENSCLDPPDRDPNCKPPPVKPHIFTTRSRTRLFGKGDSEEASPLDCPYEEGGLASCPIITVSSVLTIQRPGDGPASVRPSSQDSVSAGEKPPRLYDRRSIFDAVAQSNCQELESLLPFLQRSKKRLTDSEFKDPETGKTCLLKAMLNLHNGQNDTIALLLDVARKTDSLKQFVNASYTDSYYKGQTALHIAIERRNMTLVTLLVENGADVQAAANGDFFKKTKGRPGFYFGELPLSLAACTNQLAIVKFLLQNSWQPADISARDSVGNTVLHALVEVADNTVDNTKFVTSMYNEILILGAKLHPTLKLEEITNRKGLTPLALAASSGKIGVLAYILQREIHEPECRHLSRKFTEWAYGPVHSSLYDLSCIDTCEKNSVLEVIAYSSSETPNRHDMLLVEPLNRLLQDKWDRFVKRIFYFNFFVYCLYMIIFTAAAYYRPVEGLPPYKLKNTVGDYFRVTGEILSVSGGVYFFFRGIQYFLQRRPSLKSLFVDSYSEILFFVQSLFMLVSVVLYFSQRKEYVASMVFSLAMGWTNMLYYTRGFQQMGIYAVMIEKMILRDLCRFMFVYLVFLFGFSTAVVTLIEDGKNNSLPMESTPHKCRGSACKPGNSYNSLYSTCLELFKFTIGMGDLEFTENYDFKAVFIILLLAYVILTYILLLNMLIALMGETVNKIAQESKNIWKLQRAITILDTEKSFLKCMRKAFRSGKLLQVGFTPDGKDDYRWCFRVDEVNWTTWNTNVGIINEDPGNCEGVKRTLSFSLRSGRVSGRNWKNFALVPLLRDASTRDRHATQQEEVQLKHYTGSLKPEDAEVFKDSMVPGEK
# T1 sequence (O35433 whole entry): as above
# Sequence of rat TRPV1 (vanilloid inducible Ca2+-channel/inflammatory pain receptor 1), C-terminally ε-tagged, in TRPV1-NIH3T3 cells (rat) (O35433 whole entry): as above
molecule,measurement,setting,value
OCCN1CCN(CCCN2c3ccccc3Sc3ccc(C(F)(F)F)cc32)CC1 [fluphenazine],antagonist activity on capsaicin-induced Ca2+-uptake (in words),[1],partial or weak inhibitors
same,IC50,[1]; [8],~250 µM
same,effect on Ca2+-uptake at low concentrations in the presence of capsaicin,[1],increased Ca^2+-uptake
CN(C)CCCN1c2ccccc2Sc2ccc(Cl)cc21 [chlorpromazine],antagonist activity on capsaicin-induced Ca2+-uptake (in words),[1],full antagonists
same,IC50,[1]; [8],70 µM
same,kinetics of Ca2+-transport inhibition,[1],non-competitive inhibition kinetics
"NCCCCNS(=O)(=O)c1ccc2c(Cl)cccc2c1 [W-13, N - (4 - Aminobutyl) – 5 - chloro-2-naphthalenesulfonamide]",antagonist activity on capsaicin-induced Ca2+-uptake (in words),[1],partial or weak inhibitors
same,IC50,[1]; [8],> 300 µM
same,effect on Ca2+-uptake at low concentrations in the presence of capsaicin,[1],increased Ca^2+-uptake
"N=C(N)NCCC[C@H](NC(=O)COCC(c1ccccc1)c1ccccc1)C(=O)O [SB 290157, N2-[(2,2-Diphenylethoxy)acetyl]-L-arginine]",blocking activity on capsaicin-induced Ca2+-uptake (in words),[2],partial blocking activity
CN(C)CCC=C1c2ccccc2CCc2ccccc21 [amitriptyline],IC50,[1]; [8],~60 µM and 60 µM
COc1cc(CNC(=O)CCCC/C=C/C(C)C)ccc1O [capsaicin],ED100 for capsaicin-induction,[1]; pH 7.5,~1 µM
"O=C1CSC(c2ccccc2Cl)c2cc(Cl)ccc2N1 (stereo not drawn) [CGP-37157, 7-Chloro - 5 - (2 - chlorophenyl) - 1,5 - dihydro - 4,1 – benzothiazepin - 2(3H) - one]",blocking activity on capsaicin-induced Ca2+-uptake (in words),[2],partially active
same,blocking activity on capsaicin-induced Ca2+-uptake (in words),[2]; listed as CGP 37157,partial blocking activity
"NCCCCCCNS(=O)(=O)c1cccc2c(Cl)cccc12 [W-7, N- 6 – aminohexyl – 5 – chloro - 1 naphtalenesulfonamide]",analgesia in both phases of formalin tests,[3],analgesic
same,antagonist activity on capsaicin-induced Ca2+-uptake (in words),[1],partial or weak inhibitors
same,IC50,[1]; [8],~200 µM
same,effect on Ca2+-uptake at low concentrations in the presence of capsaicin,[1],increased Ca^2+-uptake
same,effect on heat-induced tail-flick latency,[4],inhibit
same,activity on IKCa channels (in words),[5],inactive
CN1CCN(CCCN2c3ccccc3Sc3ccc(C(F)(F)F)cc32)CC1 [trifluoperazine],antagonist activity on capsaicin-induced Ca2+-uptake (in words),[1],full antagonists
same,IC50,[1]; [8],9 µM and < 10 µM
same,activity on IKCa channels (in words),[5],inactive
Oc1cc2c(cc1O)CN(C(=S)NCCc1ccc(Cl)cc1)CCC2 [capsazepine],kinetics of Ca2+-transport inhibition,[1],shifted the capsaicin dose-response curves right
"Fc1cc(F)cc(C[n+]2ccn(CC(OCc3ccc(Cl)cc3Cl)c3ccc(Cl)cc3Cl)c2)c1 (stereo not drawn) [M1, Miconazole 1]",IC50,[1]; [8],8 µM
NC(=O)N1c2ccccc2C=Cc2ccccc21 [carbamazepine],antagonist activity on capsaicin-induced Ca2+-uptake (in words),[1],inactive
same,antagonist activity on capsaicin-induced Ca2+-uptake (in words),[1]; listed as Carbamazepine,completely inactive
Camstatin (peptide),"inhibition of capsaicin (2 µM)-induced 45Ca2+-uptake in intact TRPV1-NIH3T3 cells, 10 min, camstatin co-incubated in the uptake medium",[6],11 µM
same,inhibition of capsaicin-induced Ca2+-uptake in TRPV1-NIH3T3 cells,[7],20 µM
"Clc1ccc(COC(Cn2cc[n+](CC3CCCCC3)c2)c2ccc(Cl)cc2Cl)c(Cl)c1 (stereo not drawn) [M2, Miconazole 2]",IC50,[1]; [8],8 µM
NCC1(CC(=O)O)CCCCC1 [gabapentine],antagonist activity on capsaicin-induced Ca2+-uptake (in words),[1],partial inhibition
APETERAAVAIQAQFRKFQKKKAGS [camstatin],IC50,"[1]; IC50, inhibition of capsaicin-induced 45Ca2+-uptake",11 µM and 20 µM
Fc1ccc(C(c2ccc(F)cc2)N2CCN(C/C=C/c3ccccc3)CC2)cc1 [flunarizine],blocking activity on capsaicin-induced Ca2+-uptake (in words),[2],partially active; also recorded: partial blocking activity

# — paper PMC1890308, “Anti-calmodulins and Tricyclic Adjuvants in Pain Therapy Block the TRPV1 Channel” (PLoS ONE, 2007)
